# According to patent US20120070511A1, “MITOCHONDRIAL INHIBITORS AND USES THEREOF” (priority 2009, published 2012):
# Key:
# Format in all cases: cell-based
# [1] = system: MM cell lines (MM1.S, 8226, KMS-11, U266); assay: Measurement of cytoplasmic calcium (indo-1 fluorescence ratio 400/500 nm); conditions: MM cell lines
# Description: (§1) Measurement of cytoplasmic calcium: Cytoplasmic Ca^2+ concentration was estimated by using the cell permeant fluorochrome indo-1-AM (Invitrogen, Carlsbad, Calif.). When excited at 355 nm, the maximum emission of indo-1 shifts from 500 nm to 400 nm following its binding to free Ca^2+. Thus, the ratio of reading at 400 nm and 500 nm correlates with concentration of cytoplasmic Ca^2+. Experiments were performed in cells loaded with indo-1 by incubating them with 2.5 μM of this fluorochrome at 37° C. for 45 min. Cells were then centrifuged at 400 g for 5 min and resuspended in their growth medium followed by distribution of 100 μl of aliquots into 96 well optical bottom plates (Nalge Nunc, Int., Rochester, N.Y.) and fluorescence was measured by Spectra Max Gemini Plus (Molecular Devices, Sunnyvale, Calif.). The average of triplicates from untreated samples was used as control reading and increase in cytoplasmic Ca^2+ was calculated as percent increase from control samples.
# [2] = system: non-myeloma cell lines (NALM6, MDA-MB-435, 143B, 1420); assay: as above; conditions: non-myeloma cell lines (oligomycin: all cell lines)
# Description: as §1
# MM.1S and REH cell lines = assay: Mitochondrial membrane potential (JC-1) after CCCP; conditions: immediately after 10 μM CCCP
# Description: (§2) […]. A) ψm potential, B) mitochondrial Ca^2+ and C) cytoplasmic Ca^2+ levels were measured using the fluorochromes JC-1, X-rhod-1 and indo-1, respectively. After 10 min of initial baseline measurement, CCCP was added into each well to achieve a final concentration of 10 μM and changes in fluorescence intensity was assayed for up to 2 h. In the graphs the time point of CCCP addition is marked as ‘0’. The graph is an average of triplicate samples with +SD.
# Assaying mitochondrial function: Two parameters were assayed for mitochondrial function: Δψm and oxygen consumption. Δψm was estimated using […] (JC-1, Invitrogen, Carlsbad, Calif., USA). Oxygen consumption was measured in 3×10^6 cells using a Clark's electrode (Hansatech, Cambridge, UK).
# MM.1S cells = assay: Cytoplasmic Ca2+ (indo-1) after CCCP; conditions: 10 μM CCCP
# Description: as §2
# (§3) Measurement of cytoplasmic and mitochondrial calcium: Cytoplasmic Ca^2+ concentration was estimated by using the cell permeant ratiometric fluorochrome indo-1-AM (Invitrogen, Carlsbad, Calif., USA) while mitochondrial Ca^2+ was measured by X-Rhod-1-AM (Invitrogen, Carlsbad, Calif., USA). In the latter assay, to normalize mitochondrial Ca^2+ signal to mitochondria number, Mitotracker Green (Invitrogen, Carlsbad, Calif., USA) fluorescence was simultaneously analyzed. Experiments were performed in cells loaded with either 2.5 μM of indo-1 or 5 μM X-rhod-1 and 250 nM of Mitotracker at 37° C. for 45 min. Cells were, then, centrifuged at 400 g for 5 min and resuspended in their growth medium followed by distribution of 100 μl of aliquots into 96 well optical bottom plates (Nalge Nunc, Int., Rochester, N.Y., USA) and fluorescence was measured by Spectra Max Gemini Plus (Molecular Devices, Sunnyvale, Calif., USA). The average of triplicates from untreated samples was used as control reading and increase in cytoplasmic or mitochondrial Ca^2+ was calculated as percent increase from control samples.
# REH cells = assay: Cytoplasmic Ca2+ (indo-1) after CCCP; conditions: 10 μM CCCP
# Description: as §2, §3
# MM.1S and REH cells = assay: ATP levels after 6 h of CCCP treatment; conditions: 6 h CCCP; REH versus MM.1S
# Description: A) Reversal of CCCP induced toxicity by either 10 μM BAPTA-AM or 50 μM of Z-VAD was investigated using trypan blue exclusion assays. The bars represent the average of triplicate samples +SD. B) ATP levels were assayed following 6 h of treatment with indicated concentrations of CCCP. The bars represent the average of triplicate samples +SD. C) Induction of UPR, activation of AMPK pathway and cleavage of caspase 3 was analyzed by western blots following 24 h treatment with indicated concentrations of CCCP in MM.1S and REH cell lines. β-Actin was used as a loading control. D) The quantification of phosphorylated AMPK and total AMPK bands in the previous panel was done using a Bio-Rad gel reader which employs Quality I software. The bars represent the fold increase in the ratio of p-AMPK/AMPK in treated versus untreated samples from three independent experiments +SD.
smiles,measurement,setting,value
N#CC(C#N)=NNc1cccc(Cl)c1 [CCCP],cytoplasmic Ca2+ after mitochondrial inhibitor,[1],immediate increase in cytoplasmic Ca^2+
same,effect on mitochondrial Ca2+ uptake,[1]; estimated from cytoplasmic Ca2+,equally inhibit mitochondrial Ca^2+ uptake
same,increase in cytoplasmic Ca2+ after mitochondrial inhibitor,[2],not seen in non-myeloma cell lines except for NALM6
same,Δψm,MM.1S and REH cell lines,significantly reduced in both cell types
same,cytoplasmic Ca2+ levels directly after addition,MM.1S cells,go up in both cell types
same,cytoplasmic Ca2+ levels later (after clearance phase),MM.1S cells,remain elevated
same,cytoplasmic Ca2+ levels directly after addition,REH cells,go up in both cell types
same,cytoplasmic Ca2+ levels later (after clearance phase),REH cells,go back to control levels
same,ATP levels,MM.1S and REH cells,"decreased more significantly in REH cells, as compared to MM.1S cells"
